For one data set, the system named is Zymoseptoria tritici. Put plainly: Fungicidal activity: leaf blotch of wheat (SEPTTR), disease control on wheat seedlings. The data set is classed as in vivo, Zymoseptoria tritici on wheat plants (variety Yuma). The conditions noted are these: high volume application, 100 ppm. The gist of the method:
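Wheat seedlings (cv. Yuma, first-leaf stage) sprayed to run-off with acetone/water solutions containing Triton X-100 (or EC formulations by track spray), inoculated with Z. tritici spores before or after treatment. Kept in a dew chamber, then greenhouse at 20 °C; percent control derived from disease severity relative to untreated plants.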

For another data set, the system named is Puccinia triticina. The data set can be described thus: Fungicidal activity: wheat brown rust (PUCCRT), disease control on wheat seedlings. In kind it is in vivo, Puccinia triticina on wheat plants (variety Yuma). The conditions noted are these: high volume application, 100 ppm. The method in brief:
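Compounds in acetone diluted with nine volumes of water containing 110 ppm Triton X-100, sprayed to run-off on first-leaf Yuma wheat seedlings, inoculated with P. triticina spores before or after treatment. Plants held overnight in dark dew room at 22° C., 100% RH, then greenhouse at 24° C.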

Where [1] appears, read: 24 h, 1 day protectant, read-out: SEPTTR 1DP disease control, HV activity at 100 ppm.
[2] abbreviates: 72 h, 3 day curative, read-out: SEPTTR 3DC disease control, HV activity at 100 ppm.
Setting [3] is: 24 h, 1 day protectant, read-out: PUCCRT 1DP disease control, HV activity at 100 ppm.
Setting [4] is: 72 h, 3 day curative, read-out: PUCCRT 3DC disease control, HV activity at 100 ppm.

Read-outs that look alike come from different tables or passages of the source.

For orientation: melting point means the temperature of the solid-liquid transition.

Take `COc1ccnc(C(=S)N[C@@H](C)C(=O)O[C@@H](C)[C@@H](c2ccccc2)c2ccc(F)cc2C)c1O` [Compound 26]: the melting point is 152 to 159 °C. Moreover, in the data set with Zymoseptoria tritici (setting [1]), the pest or weed control at 100 ppm was greater than 80%. For the same compound, the pest or weed control at 100 ppm in the data set on Zymoseptoria tritici (setting [2]) is greater than 80%. Also, the pest or weed control at 100 ppm in the data set with Puccinia triticina (setting [3]) is greater than 80%. Moreover, the pest or weed control at 100 ppm in the data set with Puccinia triticina (setting [4]) was no more than 80%.
`COc1ccnc(C(=S)N[C@@H](C)C(=O)O[C@@H](C(C)C)[C@@H](C)Oc2ccccc2)c1O` [Compound 27] displayed a melting point of 46 to 63 °C. Besides, in the data set on Zymoseptoria tritici (setting [2]), the pest or weed control at 100 ppm was no more than 80%. The pest or weed control at 100 ppm in the data set with Puccinia triticina (setting [3]) was no more than 80%.
The compound `COc1cc(C)ccc1C(c1ccc(C)cc1OC)[C@H](C)OC(=O)[C@H](C)NC(=S)c1nccc(OC)c1O` [Compound 29] gave a melting point of 60 to 72 °C. Further, the pest or weed control at 100 ppm in the data set on Zymoseptoria tritici (setting [1]) is greater than 80%. In addition, the pest or weed control at 100 ppm in the data set with Zymoseptoria tritici (setting [2]) was greater than 80%. Further, the pest or weed control at 100 ppm in the data set on Puccinia triticina (setting [3]) was greater than 80%. Also, the pest or weed control at 100 ppm in the data set on Puccinia triticina (setting [4]) is greater than 80%.
With `COc1ccnc(C(=S)N[C@@H](C)C(=O)O[C@@H](C)[C@H](Oc2ccccc2)c2ccc(F)cc2Cl)c1O` [Compound 30], the melting point was 50 to 60 °C. Moreover, in the data set on Zymoseptoria tritici (setting [1]), the pest or weed control at 100 ppm is greater than 80%. Further, in the data set on Zymoseptoria tritici (setting [2]), the pest or weed control at 100 ppm is greater than 80%. Besides, the pest or weed control at 100 ppm with Puccinia triticina (setting [3]) was greater than 80%. Further, the pest or weed control at 100 ppm in the data set with Puccinia triticina (setting [4]) was no more than 80%.
`COc1ccnc(C(=S)N[C@@H](C)C(=O)O[C@@H](C)[C@@H](c2ccc(F)cc2)c2ccc(F)cc2C)c1O` [Compound 31]: the melting point fell in the range of 57 to 68 °C. Further, in the data set with Zymoseptoria tritici (setting [1]), the pest or weed control at 100 ppm was greater than 80%. Also, the pest or weed control at 100 ppm in the data set with Zymoseptoria tritici (setting [2]) is greater than 80%. Moreover, the pest or weed control at 100 ppm in the data set with Puccinia triticina (setting [3]) is greater than 80%. The pest or weed control at 100 ppm in the data set with Puccinia triticina (setting [4]) is no more than 80%.
For the compound `COc1ccnc(C(=S)N[C@@H](C)C(=O)O[C@@H](C)C(c2ccc(F)cc2F)c2ccc(F)cc2F)c1O` [Compound 32], the melting point lay in the range of 50 to 61 °C. For the same compound, in the data set with Zymoseptoria tritici (setting [1]), the pest or weed control at 100 ppm is no more than 80%. Besides, in the data set with Zymoseptoria tritici (setting [2]), the pest or weed control at 100 ppm was greater than 80%. Further, in the data set with Puccinia triticina (setting [3]), the pest or weed control at 100 ppm was no more than 80%. Moreover, in the data set on Puccinia triticina (setting [4]), the pest or weed control at 100 ppm is no more than 80%.
`COc1ccnc(C(=S)N[C@@H](C)C(=O)O[C@@H](C)[C@H](Oc2cccc(F)c2)C(C)C)c1O` [Compound 33] showed a melting point of 132 to 141 °C. Moreover, the pest or weed control at 100 ppm in the data set with Zymoseptoria tritici (setting [1]) was greater than 80%. The pest or weed control at 100 ppm with Zymoseptoria tritici (setting [2]) is no more than 80%. The pest or weed control at 100 ppm in the data set with Puccinia triticina (setting [3]) is greater than 80%. Further, the pest or weed control at 100 ppm in the data set with Puccinia triticina (setting [4]) was greater than 80%.
The compound `COc1ccnc(C(=S)N[C@@H](C)C(=O)O[C@@H](C)[C@H](Oc2ccccc2)c2ccc(F)cc2C)c1O` [Compound 35] gave a melting point of 45 to 57 °C. Besides, in the data set with Zymoseptoria tritici (setting [1]), the pest or weed control at 100 ppm was greater than 80%. The pest or weed control at 100 ppm in the data set with Zymoseptoria tritici (setting [2]) is greater than 80%. Besides, the pest or weed control at 100 ppm with Puccinia triticina (setting [3]) was greater than 80%. For the same compound, in the data set on Puccinia triticina (setting [4]), the pest or weed control at 100 ppm was no more than 80%.
For the compound `COc1ccnc(C(=S)N[C@@H](C)C(=O)O[C@H](C(C)C)[C@H](C)Oc2ccc(F)cc2)c1O` [Compound 36], the melting point lay in the range of 141 to 148 °C. The pest or weed control at 100 ppm in the data set on Zymoseptoria tritici (setting [1]) was greater than 80%. For the same compound, the pest or weed control at 100 ppm with Zymoseptoria tritici (setting [2]) is no more than 80%. Further, in the data set with Puccinia triticina (setting [3]), the pest or weed control at 100 ppm is greater than 80%. Besides, the pest or weed control at 100 ppm in the data set with Puccinia triticina (setting [4]) is greater than 80%.
`CCC[C@@H](Oc1ccc(C)cc1)[C@H](C)OC(=O)[C@H](C)NC(=S)c1nccc(OC)c1O` [Compound 37] gave a melting point of 125 to 133 °C. In addition, in the data set on Zymoseptoria tritici (setting [1]), the pest or weed control at 100 ppm was no more than 80%. Further, the pest or weed control at 100 ppm in the data set on Puccinia triticina (setting [3]) is greater than 80%. Also, the pest or weed control at 100 ppm with Puccinia triticina (setting [4]) is greater than 80%.
Take `COc1ccnc(C(=S)N[C@@H](C)C(=O)O[C@@H](C)[C@H](Oc2ccc(Cl)cc2)C2CCCC2)c1O` [Compound 38]: the melting point lay in the range of 49 to 57 °C. In addition, the pest or weed control at 100 ppm in the data set with Zymoseptoria tritici (setting [1]) was greater than 80%. Also, the pest or weed control at 100 ppm with Zymoseptoria tritici (setting [2]) was no more than 80%. Also, the pest or weed control at 100 ppm with Puccinia triticina (setting [3]) was greater than 80%. The pest or weed control at 100 ppm in the data set on Puccinia triticina (setting [4]) is greater than 80%.
